Measurements reported in paper PMC12040169 (PLOS Biology, 2025).

Key:
in vitro [1] = assay: in vitro; parameters: Viability of infected HeLa host cells, resazurin conversion, bulk resorufin fluorescence relative to DMSO; details: human, hela cells; bulk resorufin, mean of 2
in vitro [2] = details: human, hela cells, % viability
[3] = system: T1, C. trachomatis L2/434/Bu expressing GFP (CTL2-GFP); assay: microbe, parasite or virus in culture; parameters: C. trachomatis total inclusion area by high-content imaging, normalised to DMSO; details: Chlamydia trachomatis, HeLa, 28.5 h; total inclusion area; read-out: % of control remaining
T1 construct: L2/434/Bu GFP intracellular growth in HeLa cells
In short: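 Screening measures GFP fluorescence from the reporter strain and resorufin fluorescence for host viability, with Hoechst-based imaging of fixed cells adding inclusion area, inclusion number and nuclei count per well.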

[4] = system: T2, CTL2-GFP (C. trachomatis L2/434/Bu, GFP-expressing); assay: microbe, parasite or virus in culture; parameters: Intracellular C. trachomatis growth in HeLa cells, bulk GFP fluorescence relative to DMSO; details: Chlamydia trachomatis, HeLa, 28.5 h; bulk GFP, mean of 2; read-out: % of control remaining
T2 construct: L2/434/Bu, GFP-expressing
Procedure: MICs were calculated as described above.

| Structure (SMILES) | viability at 28.5 h, 1 µM (in vitro [1]) [%] | viability at 28.5 h, 5 µM (in vitro [1]) [%] | viability at 28.5 h, 10 µM (in vitro [1]) [%] | viability at 28.5 h, 10 µM (in vitro [2]) [%] | activity at 1 µM [3] [%] | activity at 5 µM [3] [%] | activity at 10 µM [3] [%] | activity at 1 µM [4] [%] | activity at 5 µM [4] [%] | activity at 10 µM [4] [%] |
| --- | --- | --- | --- | --- | --- | --- | --- | --- | --- | --- |
| CC(N)C(=O)NC1CCN(c2nc3c(cc2F)c(=O)c(C(=O)O)cn3C23CC(C2)C3)C1 (centres unmarked) [CBK016632] | 90.2 | 89.5 | 87 | 80.5 | 11.5 | 1.17 | 0.494 | 15.3 | 3.24 | 7.52 |
| Nc1cccc2c(OCCO)cccc12 [CBK001976C] | 92.9 | 89 | 85.7 | 91.8 | 82.7 | 72.9 | 30.7 | 92.4 | 76.5 | 45.6 |
| COc1cc(OC)c(CCNC2CCCc3c2cnn3C)c(OC)c1 (centres unmarked) [CBK304482] | 97.4 | 91.3 | 93.8 | 111 | 102 | 131 | 56.7 | 147 | 156 | 135 |
| Cc1ccc(NC(=O)n2ccc3c(N4CCNCC4)cccc32)cc1[N+](=O)[O-] [CBK003747C] | 89.8 | 85.5 | 76.7 | 81.4 | 75.6 | 59.3 | 30.3 | 105 | 78.4 | 44.4 |
| Cc1ccc(N2C(=O)c3[nH]nc(C)c3C2c2ccc(O)cc2)cc1 (centres unmarked) [CBK287915] | 98 | 107 | 106 | 94.7 | 111 | 93.4 | 54.6 | 108 | 89.5 | 54.1 |
| Cc1c(OCc2cnn(-c3ccccc3)c2)ccc(-c2n[nH]c(C(F)(F)F)c2-c2ccccc2)c1O [CBK264962] | 109 | 90.9 | 97 | 104 | 82.3 | 57.5 | 20.9 | 89.8 | 73.9 | 49.7 |
| O=C(Nc1ccccc1N1CCCNCC1)c1ccc2ccccc2c1 [CBK038927T] | 115 | 114 | 116 | 97.3 | 84.9 | 7.75 | 1.67 | 94.8 | 1.41 | 8.25 |
| Cc1cc(NS(=O)(=O)c2ccc(Nc3nc(-c4ccccn4)cs3)cc2)no1 [CBK263302B] | 90.8 | 93.6 | 99.8 | 93.1 | 76.5 | 93.3 | 56.4 | 105 | 88.6 | 49.5 |
| FC(F)(F)CCN1CCC2(CC1)NCCc1c2[nH]c2ccc(Cl)cc12 [CBK039331] | 98.2 | 105 | 108 | 91 | 56.9 | 20.2 | 7.6 | 123 | 46.8 | 30.2 |
| Cc1cc2cc(C(=O)N3CCC(c4c(C(=O)NC(C)C)sc5ccccc45)C3)ccc2o1 (centres unmarked) [CBK285873] | 90 | 97.6 | 96.2 | 87.1 | 150 | 85.1 | 51.5 | 148 | 48.7 | 31.6 |
| Cc1ccc2nsnc2c1S(=O)(=O)Nc1cccc2cccnc12 [CBK267051] | 76.3 | 60.6 | 60.9 | 46.9 | 87.7 | 88.5 | 34.4 | 108 | 79.7 | 47.8 |
| O=S(=O)(Nc1nccs1)c1ccc(Nc2ncnc3ccccc23)cc1 [CBK269487C] | 93.3 | 99 | 86.3 | 93.8 | 140 | 53.6 | 28.6 | 141 | 72.9 | 35 |
| COc1ccc2[nH]cc(CCNC(=O)c3ccc([N+](=O)[O-])c(C)c3)c2c1 [CBK269426] | 85.4 | 90.5 | 84.5 | 100 | 140 | 55.8 | 21.5 | 149 | 100 | 62.1 |
| CC(=O)NC[C@H]1CN(c2ccc3c(c2)CCSC3)C(=O)O1 [CBK018505] | 95.5 | 101 | 101 | 99 | 129 | 28.5 | 9.34 | 142 | 29.2 | 12.6 |
| O=C(O)c1cn(C2CC2)c2cc(N3CCN(C(=O)Cc4ccsc4)CC3)c(F)cc2c1=O [CBK297142] | 90.6 | 93 | 90.7 | 88.9 | 114 | 17.9 | 12.9 | 137 | 28.4 | 17.7 |
| Cc1ccc(NC(=O)N(Cc2ccc(-c3ccccc3)cc2)CC(C)(C)CN)c(C)c1 [CBK002428C] | 90.2 | 88.8 | 86.4 | 94.9 | 115 | 68.5 | 10.7 | 126 | 87.3 | 46.1 |
| NC(=O)c1[nH]nc(C2OC(CO)C(O)C2O)c1O (centres unmarked) [CBK201236] | 92.8 | 92.1 | 93.8 | 95.1 | 23.4 | 16 | 13.6 | 15.5 | 10.1 | 9.69 |
| Cc1cc(NS(=O)(=O)c2ccc(NC(=O)CCCOc3ccc(Cl)cc3Cl)cc2)no1 [CBK297145] | 85.1 | 93.5 | 89.4 | 103 | 125 | 84.3 | 56.5 | 128 | 62.6 | 39.3 |
| COc1ccc(N2CCN(C(=O)c3ccc([N+](=O)[O-])o3)CC2)cc1 [CBK091410] | 106 | 110 | 125 | 105 | 128 | 64.3 | 20.7 | 106 | 55.2 | 16 |
| CC(NC(=O)N(Cc1ccccc1C(F)(F)F)CC(C)(C)CN)c1cccc2ccccc12 (centres unmarked) [CBK002422C] | 90.1 | 94.1 | 101 | 91.9 | 78.4 | 41 | 12.2 | 112 | 51.5 | 34.5 |
| Cc1c(C(=O)Nc2ccc(Cl)cc2)sc2c1C(c1cccnc1)CC(=O)N2 (centres unmarked) [CBK288233] | 101 | 98.8 | 97.1 | 87.1 | 100 | 56.2 | 44.9 | 99.5 | 55.5 | 83.6 |
| COc1cccc(C(=O)N2CCC(Cc3ccc(-c4cccc(C)c4)cc3)(C(N)=O)CC2)c1 [CBK285779] | 96.4 | 98.8 | 90.2 | 115 | 113 | 114 | 62.9 | 119 | 104 | 49.9 |
| CCc1nnc(NS(=O)(=O)c2ccc(N/C=C3\C(=O)N(c4ccc(C)cc4)N=C3C)cc2)s1 [CBK262395] | 96 | 101 | 91.7 | 100 | 116 | 36.9 | 35 | 87 | 17.9 | 18.6 |
